# Where a name gives a salt, the structure may show the parent alone.
# Columns and labels:
# [1] = test system: human intestinal microsomes; experiment: Glucuronidation kinetics in pooled human intestinal microsomes (HPLC-UV); conditions: for Glucuronidation in enterocytes vmax - used in basic model: scaled with 4.29 mg protein/kg BW; for Glucuronidation in enterocytes Ksi: substrate-inhibition kinetics
# Method: (§1) Pooled human liver microsomes ( 20mg/mL ) and pooled human intestinal microsomes ( 20mg/mL ) were from BD Biosciences. We first placed the reaction mixtures for 30 min on ice and then incubated them for 5 min at 37°C. The addition of uridine 5'-diphospho-glucuronic acid (Sigma-Aldrich) to a final concentration of 5 mM started the reaction. For the enzyme reactions, we used a temperature of 37°C; the incubation times differed, subject to the BP and microsome type regarded (Table 1). We terminated the glucuronidation reactions with the addition of 10μL perchloric acid (Merck). In the following step, we put the samples on ice for 15 min, centrifuged at 16,000×g for 10 min, and analyzed the supernatants using HPLC-UV.
# (§2) We conducted the HPLC-UV analysis on an Agilent 1,100 series HPLC system (Agilent Technologies). For this, we injected 10μL of each sample onto a Poroshell 120 EC-C18 column ( 4.6×100mm , 2.7μm , Agilent Technologies) maintained at 40°C. The mobile phases were 0.1% formic acid (A) and acetonitrile (B). The elution of different BPs consisted of a linear gradient (see Table 2). We further analyzed the results with the GraphPad Prism software (version 5.04; GraphPad Software Inc.,) and selected the most suitable kinetic model (Michaelis-Menten or substrate inhibition, Equations 3 and 4), based on the curve fitting and the shape of the Eadie-Hofstee plots (see Figure S2).
# (§3) Michaelis-Menten equation: (3) v=vmax[S]/Km+[S]
# (§4) Substrate inhibition equation: (4) v=vmax[S]/Km+[S](1+[S]/Ksi )
# [2] = as above; conditions: human, pooled human intestinal microsomes, pH 7.4
# Method: as §1, §2, §3, §4
# human liver microsomes = experiment: Glucuronidation kinetics in pooled human liver microsomes (HPLC-UV); conditions: for Hepatic glucuronidation vmax: in vitro value scaled with 32 mg protein/g liver, BPS: uncalibrated model; for glucuronidation compared with the other analogs: at lower, physiologically relevant substrate concentrations, small intestine and liver (Figure 3B)
# Method: as §1, §2, §3, §4
# [3] = as above; conditions: human, pH 7.4
# Method: as §1, §2, §3, §4
# estrogen receptor = target: estrogen receptor; set-up: method as in Kitamura et al. 2005; conditions: ref Kitamura et al. 2005, cited from earlier work; for EC50: estrogenic potency
# [4] = cited from earlier work; for pKa: ref SPARC 2011; for logPow: ref Choi and Lee 2017
# [5] = mouse, in vivo; cited from earlier work
# [6] = in vivo; cited from earlier work
# [7] = set-up: method as in Oh et al. (2018); conditions: ref Oh et al. (2018); cited from earlier work
# [8] = Margin of exposure (MOE = EC50/Cmax) back-of-the-envelope calculation; set-up: species or system human
# [9] = set-up: method as in Dumont et al. 2011; conditions: third subject (oldest volunteer); ref Dumont et al. 2011; cited from earlier work
# estrogen receptors = test system: estrogen receptors; set-up: method as in Kitamura et al. 2005; Stossi et al. 2014; conditions: ref Kitamura et al. 2005; Stossi et al. 2014; cited from earlier work
# [10] = EC50 (Kitamura et al. 2005)/highest Cmax of basic PBPK model (Table 9)
SMILES,Glucuronidation in enterocytes vmax - used in basic model [1] [nmol/h/g bw],Glucuronidation in enterocytes Ksi [1],Km [2] [µM],Hepatic glucuronidation vmax (human liver microsomes),Km [3] [µM],EC50 (estrogen receptor) [µM],pKa [4],"AUC, mean (range), measured [6]",Cmax [6] [nM],glucuronidation compared with the other analogs (human liver microsomes),logPow [4],also measured
"Oc1ccc(Cc2ccc(O)cc2)cc1 [BPF, bisphenol F]",462,"605,000 nM",57,"3,600 nmol/h/g liver",17.9,1,~7.6,–,–,–,–,–
"CC(C)(c1ccc(O)cc1)c1ccc(OS(=O)(=O)O)cc1 [BPA-s, BPA sulfate]",–,–,–,–,–,–,–,3.61 (2.60–4.52) nM*h for 1.5 h,4.22,–,–,share of metabolites present in plasma [5]: 0.5–4.8%
"O=S(=O)(c1ccc(O)cc1)c1ccc(O)cc1 [BPS, bisphenol S]",563,"711,000 nM",354,"26,500 nmol/h/g liver",285,1.1,~8.2,–,–,least effective,1.7–2.1,"half-life, times longer than the half-life of BPA [7]: 2.7 times; MOE in serum [8, 10]: 2,440"
O=S(=O)(O)Oc1ccc(Cc2ccc(O)cc2)cc1 [BPF-s],–,–,–,–,–,–,–,–,–,–,–,share as major metabolite [9]: 75%
"CC(C)(c1ccc(O)cc1)c1ccc(O[C@@H]2O[C@H](C(=O)O)[C@@H](O)[C@H](O)[C@H]2O)cc1 [BPA-g, BPA glucuronide]",–,–,–,–,–,–,–,6.66 (5.52–8.34) nM*h for 1.5 h,6.48,–,–,–
"Oc1ccc(C(c2ccc(O)cc2)(C(F)(F)F)C(F)(F)F)cc1 [BPAF, bisphenol AF]",107,"82,200 nM",1.83,"5,660 nmol/h/g liver",–,–,~9.2,–,–,most effective,2.8 to 4.8,"Hepatic glucuronidation Ksi (human liver microsomes; substrate-inhibition kinetics): 219,000 nM; Km ([3]; pooled human liver microsomes): 4.21 µM; MOE in serum of females of childbearing age ([8]; 2D-MC analysis, P95/P95): 1,860; MOE in gonads [8, 10]: 1,810; estrogenic potency, times higher than BPA (estrogen receptor; from EC50 values): 13 times; estrogenic potency, times higher than the potency of BPA (estrogen receptors): 7 to 13 times"

# Reference: publication PMC6108829 (Environmental Health Perspectives, 2018)
